We go through 19 molecules from ChEMBL document CHEMBL3259784, “Synthesis of novel 2-mercaptobenzoxazole based 1,2,3-triazoles as inhibitors of proinflammatory cytokines and suppressors of COX-2 gene expression” (Eur J Med Chem, 2014).

The source made the active and inactive calls. The calls are words filed in the database; no cut-off is given here.

In series [1] the target is Prostaglandin G/H synthase 1 (Homo sapiens, UniProt P23219). Briefly: Inhibition of COX-1 (unknown origin).
The target in series [2] is T1, Prostaglandin G/H synthase 2 (Homo sapiens, UniProt P35354).
T1 sequence (P35354 whole entry): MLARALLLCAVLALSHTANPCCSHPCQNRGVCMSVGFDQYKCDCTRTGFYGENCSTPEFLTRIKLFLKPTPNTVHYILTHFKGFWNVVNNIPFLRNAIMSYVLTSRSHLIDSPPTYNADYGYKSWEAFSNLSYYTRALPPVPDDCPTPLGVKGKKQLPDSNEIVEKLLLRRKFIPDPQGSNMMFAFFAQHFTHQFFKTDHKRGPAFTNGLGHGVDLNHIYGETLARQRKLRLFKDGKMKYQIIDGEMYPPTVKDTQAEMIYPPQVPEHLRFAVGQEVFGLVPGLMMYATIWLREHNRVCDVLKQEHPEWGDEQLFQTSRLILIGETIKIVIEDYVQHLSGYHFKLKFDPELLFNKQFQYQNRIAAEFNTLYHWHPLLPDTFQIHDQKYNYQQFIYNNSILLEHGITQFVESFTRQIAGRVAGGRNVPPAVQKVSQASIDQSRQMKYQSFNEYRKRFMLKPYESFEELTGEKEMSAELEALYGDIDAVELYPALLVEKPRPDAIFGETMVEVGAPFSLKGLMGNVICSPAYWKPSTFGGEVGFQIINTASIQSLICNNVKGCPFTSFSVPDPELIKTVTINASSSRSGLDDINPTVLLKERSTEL
Briefly: Inhibition of COX-2 (unknown origin).

For series [3], the system named is Rattus norvegicus. Briefly: Antiinflammatory activity in Albino Wistar rat assessed as inhibition of carrageenan-induced hind paw edema at 0.05 mmol/kg, po treated 1 hr before carrageenan challenge by plethysmometer analysis. Format: functional, organism-based. As to conditions: TDE = time-dependent effect. (In general: In the carrageenan paw model, swelling and tenderness develop within hours.)

Series [4] relates to Rattus norvegicus. Briefly: Antiinflammatory activity against carrageenan-induced hind paw Albino Wistar rat model assessed as reduction in nitric oxide level in hind paw at 0.05 mmol/kg, po treated 1 hr before carrageenan challenge by griess reagent based microplate reader analysis. Format: functional, organism-based.
Series [5] deals with Rattus norvegicus. Kind of series: Antioxidant activity in carrageenan-induced hind paw Albino Wistar rat model assessed as inhibition of lipid peroxidation by measuring TBARS level in hind paw at 0.05 mmol/kg, po treated 1 hr before carrageenan challenge by microplate reader analysis. The class given is functional.
Series [6] has as its system Rattus norvegicus. Briefly: Ulcerogenicity in Albino Wistar rat assessed as gastric ulceration and rupture of gastric mucosal layer at 0.15 mmol/kg, po measured after 5 hrs. The class given is toxicity, organism-based, Gastric mucosa. As to conditions: in vivo.
The test system of series [7] is Rattus norvegicus. Kind of series: Antiinflammatory activity against carrageenan-induced hind paw Albino Wistar rat model assessed as reduction in serum TNF-alpha level at 0.05 mmol/kg, po treated 1 hr before carrageenan challenge by ELISA. The class given is functional.
Series [8] deals with Rattus norvegicus. Briefly: Antiinflammatory activity against carrageenan-induced hind paw Albino Wistar rat model assessed as reduction in serum IL-1 beta level at 0.05 mmol/kg, po treated 1 hr before carrageenan challenge by ELISA. Format: functional.
In series [9] the test system is Rattus norvegicus. Briefly: Antioxidant activity in carrageenan-induced hind paw Albino Wistar rat model assessed as increase in GSH level in hind paw joint at 0.05 mmol/kg, po treated 1 hr before carrageenan challenge measured per gm of tissue by plate reader analysis (reference value: 0.58 +/-0.02 ug). Format: functional.
Series [10] has as its system Rattus norvegicus. Briefly: Antiinflammatory activity against carrageenan-induced hind paw Albino Wistar rat model assessed as reduction in serum COX2 level at 0.05 mmol/kg, po treated 1 hr before carrageenan challenge by ELISA. The class given is functional.
The next series has as its system HeLa. Briefly: Decrease in COX-2 gene expression in human HeLa cells at 10 uM after 24 hrs by real time PCR analysis relative to celecoxib. The class given is functional.
For a further series, the system named is Mus musculus. Briefly: Antinociceptive activity in mouse assessed as inhibition of acetic acid-induced writhing at 0.05 mmol/kg, po administered 30 mins prior to acetic acid challenge measured for 20 mins after acetic acid injection. The class given is functional.
Series [11] relates to Rattus norvegicus. Briefly: Antiinflammatory activity in Albino Wistar rat assessed as inhibition of carrageenan-induced hind paw edema at 0.05 mmol/kg, po treated 1 hr before carrageenan challenge measured 5 hrs post-carrageenan injection by plethysmometer analysis. The class given is functional.
In series [12] the test system is Rattus norvegicus. Kind of series: Antiinflammatory activity in Albino Wistar rat assessed as inhibition of carrageenan-induced hind paw edema at 0.05 mmol/kg, po treated 1 hr before carrageenan challenge measured 3 hrs post-carrageenan injection by plethysmometer analysis. The class given is functional.
Series [13] concerns Rattus norvegicus. Briefly: Antiinflammatory activity against carrageenan-induced hind paw Albino Wistar rat model assessed as reduction in nitric oxide level in hind paw at 0.05 mmol/kg, po treated 1 hr before carrageenan challenge measured per mg of wet tissue by griess reagent based microplate reader analysis. Format: functional.

Sequence of Prostaglandin G/H synthase 1 (P23219 whole entry): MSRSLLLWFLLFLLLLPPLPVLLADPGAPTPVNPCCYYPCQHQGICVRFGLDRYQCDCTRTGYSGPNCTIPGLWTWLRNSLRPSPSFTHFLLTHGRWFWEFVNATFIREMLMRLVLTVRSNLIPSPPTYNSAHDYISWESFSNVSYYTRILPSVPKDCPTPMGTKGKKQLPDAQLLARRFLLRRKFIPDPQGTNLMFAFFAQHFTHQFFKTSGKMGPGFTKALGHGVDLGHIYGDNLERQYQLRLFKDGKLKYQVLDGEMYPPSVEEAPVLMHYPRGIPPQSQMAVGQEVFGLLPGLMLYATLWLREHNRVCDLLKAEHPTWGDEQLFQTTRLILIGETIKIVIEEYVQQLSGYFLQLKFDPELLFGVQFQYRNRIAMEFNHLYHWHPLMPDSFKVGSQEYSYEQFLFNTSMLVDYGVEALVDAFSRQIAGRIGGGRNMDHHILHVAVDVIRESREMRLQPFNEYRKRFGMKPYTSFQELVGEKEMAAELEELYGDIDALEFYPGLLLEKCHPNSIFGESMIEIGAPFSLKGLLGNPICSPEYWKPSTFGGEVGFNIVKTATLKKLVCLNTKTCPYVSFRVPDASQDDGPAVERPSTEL

Regarding `Cc1ccc(-n2cc(CSc3nc4ccccc4o3)nn2)cc1C`, the values for the IC50 in series [1] and in series [2] were 140 µM and 4.35 µM, respectively. In the series with Rattus norvegicus [3], the inhibition result is “tde”. Besides, the inhibition entry with Rattus norvegicus [4] was “Active”.
For `CCOc1ccc(-n2cc(CSc3nc4ccccc4o3)nn2)cc1`, the IC50 (commonly the midpoint of a concentration-inhibition curve) in series [1] came to 163 µM; in series [2], 3.5 µM. The Activity with Rattus norvegicus [5] is 5.1 nmol; in the series on Rattus norvegicus [6], “Non-toxic”; in the series on Rattus norvegicus [8], 2.66 pg/mL; with Rattus norvegicus [9] it was 0.84 µg. Moreover, the inhibition entry with Rattus norvegicus [3] was “tde”. Further, the inhibition result in the series on Rattus norvegicus [4], with Rattus norvegicus [7] and with Rattus norvegicus [10] was “Active” in each case.
`Fc1ccc(-n2cc(CSc3nc4ccccc4o3)nn2)cc1`: the IC50 in series [1] was 192 µM; in series [2], 5.21 µM. The inhibition entry in the series on Rattus norvegicus [3] is “tde”. The inhibition entry in the series with Rattus norvegicus [4] is “Active”.
As to `Brc1ccccc1-n1cc(CSc2nc3ccccc3o2)nn1`, the IC50 was determined as 38.4 µM in series [1] and 2.75 µM in series [2]. The inhibition result with Rattus norvegicus [3] is “tde”. For the same molecule, the inhibition entry in the series on Rattus norvegicus [4] was “Active”.
For the molecule `O=[N+]([O-])c1cccc(-n2cc(CSc3nc4ccccc4o3)nn2)c1`, the IC50 in series [1] came out at 104 µM; in series [2] it was 9.58 µM. Besides, the inhibition result with Rattus norvegicus [3] is “tde”. In the series on Rattus norvegicus [4], the inhibition entry was “Active”.
As to `Brc1ccc(-n2cc(CSc3nc4ccccc4o3)nn2)cc1`, the IC50 was 186 µM in series [1] and 2.8 µM in series [2]. In the series with Rattus norvegicus [3], the inhibition result was “tde”. For the same molecule, the Activity result in the series with Rattus norvegicus [6] is “Non-toxic”. In addition, the inhibition entry with Rattus norvegicus [4], with Rattus norvegicus [7], in the series with Rattus norvegicus [8] and in the series with Rattus norvegicus [10] was “Active” throughout. For the same molecule, in the series with HeLa, the “fold change (FC)” value is given as 0.79.
`c1ccc(-n2cc(CSc3nc4ccccc4o3)nn2)cc1`: the IC50 amounted to 107 µM in [1] and 6.42 µM in [2]. In addition, the inhibition entry in the series on Rattus norvegicus [3] was “tde”. Moreover, the inhibition entry in the series with Rattus norvegicus [4] was “Active”.
On to `Clc1ccccc1-n1cc(CSc2nc3ccccc3o2)nn1`, for which the values for the IC50 in series [1] and in series [2] were 44.4 µM and 3.53 µM, respectively. In addition, the inhibition result with Rattus norvegicus [3] is “tde”. In the series on Rattus norvegicus [4], the inhibition result is “Active”.
Turning to `COc1ccc(-n2cc(CSc3nc4ccccc4o3)nn2)cc1`, the IC50 was 89.4 µM in series [1] and 2.3 µM in [2]. For the same molecule, the inhibition in vivo (commonly the relative decrease from the control value, in per cent) at 50 µmol/kg with Mus musculus was 55.5%. Besides, the inhibition entry with Rattus norvegicus [3] was “tde”. Besides, the figures for the Activity entry with Rattus norvegicus [6], in the series on Rattus norvegicus [7] and in the series on Rattus norvegicus [10] were “Non-toxic”, 3.1 pg/mL and 6.54 nmol/min/mL, respectively. Further, the inhibition result in the series on Rattus norvegicus [4] and in the series on Rattus norvegicus [8] was “Active” throughout.
Turning to `Cc1ccccc1-n1cc(CSc2nc3ccccc3o2)nn1`, the results for the IC50 in series [1] and in [2] were 132 µM and 4.68 µM, respectively. Moreover, the inhibition result in the series with Rattus norvegicus [3] was “tde”. For the same molecule, the inhibition entry in the series with Rattus norvegicus [4] was “Active”.
Regarding `O=[N+]([O-])c1ccc(-n2cc(CSc3nc4ccccc4o3)nn2)cc1`, the IC50 in series [1] amounted to 115 µM; in [2] it was 9.87 µM. Also, the inhibition entry in the series with Rattus norvegicus [3] was “tde”. Besides, the inhibition result with Rattus norvegicus [4] is “Active”.
For `CC(C)(C)c1ccc(-n2cc(CSc3nc4ccccc4o3)nn2)cc1`, in that order: 154 µM, 3.85 µM, “tde” and “Active”.
Consider `c1cncc(-n2cc(CSc3nc4ccccc4o3)nn2)c1`, for which the IC50 in series [1] is 96.6 µM; in series [2], 3.98 µM. In addition, in the series on Rattus norvegicus [3], the inhibition entry was “tde”. The inhibition entry in the series with Rattus norvegicus [4] is “Active”.
With `CCc1ccc(-n2cc(CSc3nc4ccccc4o3)nn2)cc1`, the IC50 in series [1] worked out at 246 µM; in series [2], 3.8 µM. For the same molecule, the inhibition in vivo at 50 µmol/kg in the series on Rattus norvegicus [11] came out at 61.1%; in the series with Rattus norvegicus [12], 66.7%. Further, the inhibition result in the series on Rattus norvegicus [3] was “tde”. The Activity result in the series on Rattus norvegicus [6] was “Non-toxic”; in the series with Rattus norvegicus [13] it was 5.1 µmol; in the series on Rattus norvegicus [9], 0.84 µg. The inhibition entry in the series on Rattus norvegicus [4], with Rattus norvegicus [7], with Rattus norvegicus [8] and with Rattus norvegicus [10] was “Active” each time. Also, in the series on HeLa, the “fold change (FC)” value is on record as 0.94.
Regarding `Fc1ccccc1-n1cc(CSc2nc3ccccc3o2)nn1`, the IC50 in [1] amounted to 24.2 µM; in [2], 2.4 µM. The inhibition result in the series on Rattus norvegicus [3] is “tde”. For the same molecule, in the series with Rattus norvegicus [4], the inhibition entry is “Active”.
`Clc1ccc(-n2cc(CSc3nc4ccccc4o3)nn2)cc1`: the concentration for half-maximal inhibition (IC50) amounted to 80.8 µM in series [1] and 1.9 µM in series [2]. The results for the inhibition in vivo at 50 µmol/kg in the series on Mus musculus, in the series on Rattus norvegicus [11] and in the series on Rattus norvegicus [12] were 51.5%, 55.5% and 68.9%, respectively. The inhibition result with Rattus norvegicus [3] was “tde”. In addition, the Activity result in the series on Rattus norvegicus [6] is listed as “Non-toxic”. The inhibition result in the series with Rattus norvegicus [4], in the series on Rattus norvegicus [7], with Rattus norvegicus [8] and in the series with Rattus norvegicus [10] was “Active” each time.
On to `Cc1ccc(-c2cc(C(F)(F)F)nn2-c2ccc(S(N)(=O)=O)cc2)cc1` [CELECOXIB], for which the inhibition in vivo at 50 µmol/kg in the series with Mus musculus was determined as 70.9%; in the series with Rattus norvegicus [11], 65.5%; in the series with Rattus norvegicus [12], 72.2%. In addition, the Activity is 6.3 nmol in the series on Rattus norvegicus [5]; 3.35 pg/mL in the series with Rattus norvegicus [7]; 2.9 pg/mL in the series on Rattus norvegicus [8]; 5.5 µmol in the series on Rattus norvegicus [13]; 0.81 µg with Rattus norvegicus [9]; 7.9 nmol/min/mL with Rattus norvegicus [10]. In addition, the inhibition entry in the series with Rattus norvegicus [4] is “Active”.
`Clc1ncccc1-n1cc(CSc2nc3ccccc3o2)nn1`: the values for the IC50 in [1] and in series [2] were 103 µM and 5.03 µM, respectively. For the same molecule, the inhibition entry in the series on Rattus norvegicus [3] is “tde”. Moreover, in the series on Rattus norvegicus [4], the inhibition result is “Active”.
`Clc1cccc(-n2cc(CSc3nc4ccccc4o3)nn2)c1`: the results for the IC50 in series [1] and in series [2] were 88.3 µM and 4.63 µM, respectively. For the same molecule, the inhibition entry in the series on Rattus norvegicus [3] was “tde”. In addition, the inhibition result in the series with Rattus norvegicus [4] was “Active”.
